# Target: T1, human GCGR (Homo sapiens, UniProt P47871)
# T1 construct: expressed in transfected cells; host or cells: HEK293 (hGluc-1HEK), pcDNA3.1, G418 selection
# Test: Cellular functional assay, cAMP readout: inhibition of glucagon stimulated cAMP
# Assay type: cell-based
# Conditions: not given
# Procedure: IC50 Values in Cellular Functional Assays: cAMP Readout
# Full-length human GCGR (Accession Number: NM000160) subcloned into pcDNA3.1 was stably transfected into HEK293 cells (hGluc-1HEK) and maintained under G418 selection (500 μg/mL). Cell cultures were maintained in DMEM/F12 media supplemented with 10% FBS and 1% GlutaMax™ Supplement (Available from ThermoFisher Scientific, catalog #35050061). Glucagon stimulated cAMP was quantified using LANCE technology as per manufacturer instructions. On the day of the experiment, spent media was removed and cells were washed with Hank's Buffered Saline solution (HBSS), and cells harvested with non-enzymatic cell dissociation solution, then washed once with HBSS. Cells were re-suspended in stimulation buffer at a concentration of 0.83×10^6 cells/ml and cAMP detection antibody was added. 6 μl/well of this solution was then dispensed in a 384 well plate (cell density 5000 cells/well). Test compound was serially diluted in DMSO and 50 nl were dispensed on top of the cell solution and allowed to incubate for 30 minutes. 6 μl of a 2× glucagon solution (final concentration in assay 100 pM) was then added and the reaction was terminated after 5 minutes with the addition of detection mix. The resulting mixture was incubated, protected from light for 1.5 h. cAMP levels were quantified by TR-FRET in an EnVision instrument against a known standard. IC50's were generated by using a non-linear regression macro driven in Excel and converted to Ki values.
# T1 sequence (P47871 26-477): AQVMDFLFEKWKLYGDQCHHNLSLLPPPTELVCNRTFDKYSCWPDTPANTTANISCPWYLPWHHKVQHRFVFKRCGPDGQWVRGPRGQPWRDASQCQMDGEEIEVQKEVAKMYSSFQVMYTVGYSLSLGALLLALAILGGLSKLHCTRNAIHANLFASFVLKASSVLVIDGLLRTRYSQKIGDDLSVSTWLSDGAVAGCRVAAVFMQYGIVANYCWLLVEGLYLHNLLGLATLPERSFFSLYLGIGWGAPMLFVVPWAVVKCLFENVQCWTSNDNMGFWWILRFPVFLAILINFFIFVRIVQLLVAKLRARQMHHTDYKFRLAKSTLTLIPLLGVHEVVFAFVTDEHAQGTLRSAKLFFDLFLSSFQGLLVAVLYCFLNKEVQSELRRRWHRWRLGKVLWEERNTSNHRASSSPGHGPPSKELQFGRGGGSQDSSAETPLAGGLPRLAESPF
row,Ki,Compound
1,145 nM,O=C(O)CCNC(=O)c1ccc(C(CCc2ccccc2)n2cc3cc(-c4ccc(C(F)(F)F)cc4)ccc3n2)cc1 (stereo not shown) [Compound 104]
2,850 nM,O=C(O)CCNC(=O)c1ccc(C(CCc2ccccc2)n2ncc3cc(-c4ccc(C(F)(F)F)cc4)ccc32)cc1 (stereo not shown) [Compound 142]
3,2250 nM,"CC(C)CC(c1ccc(CNCCC(=O)O)cc1)n1ncc2cc(-c3cc(Cl)cc(Cl)c3)ccc21 (stereo not shown) [Compound 118, 3-((4-(1-(5-(3,5-Dichlorophenyl)-1H-indazol-1-yl)-3-methylbutyl)benzyl)amino)propanoic Acid]"
4,275 nM,O=C(O)CCNC(=O)c1ccc(C(CCC2CCCCC2)n2cc3cc(-c4ccc(C(F)(F)F)cc4)ccc3n2)cn1 (stereo not shown) [Compound 186]
5,285 nM,"CC(C)CC(c1ccc(CNCCC(=O)O)cc1)n1ncc2cc(-c3ccc(OC(F)(F)F)cc3)ccc21 (stereo not shown) [Compound 10, 3-((4-(3-Methyl-1-(5-(4-(trifluoromethoxy)phenyl)-1H-indazol-1-yl)butyl)benzyl)amino)propanoic Acid]"
6,1100 nM,COCCC(c1ccc(C(=O)NCCC(=O)O)cc1)n1cc2cc(-c3ccc(C(F)(F)F)cc3)ccc2n1 (stereo not shown) [Compound 202]
7,650 nM,"COc1ccc(-c2ccc3c(cnn3C(CC(C)C)c3ccc(CNCCC(=O)O)cc3)c2)cc1 (stereo not shown) [Compound 38, 3-((4-(1-(5-(4-Methoxyphenyl)-1H-indazol-1-yl)-3-methylbutyl)benzyl)amino)propanoic Acid]"
8,85 nM,"Cc1cc(C(F)(F)F)ccc1-c1ccc2c(cnn2C(CC(C)C)c2ccc(CNCCC(=O)O)cc2)c1 (stereo not shown) [Compound 84, 3-((4-(3-Methyl-1-(5-(2-methyl-4-(trifluoromethyl)phenyl)-1H-indazol-1-yl)butyl)benzyl)amino)propanoic Acid]"
9,71 nM,Cc1cc(Cl)ccc1-c1ccc2nn(C(CCC3CCCCC3)c3ccc(C(=O)NCCC(=O)O)nc3)cc2c1 (stereo not shown) [Compound 184]

# Test system: glucagon receptor
# Test: Glucagon challenge in vivo assay measuring blood glucose (normal dog glucagon challenge test)
# Conditions: male beagle dogs; 10 mg/kg oral gavage
# Procedure: Glucagon Challenge In Vivo Assay Measuring Blood Glucose
# The efficacy of a glucagon receptor antagonist was evaluated using a normal dog glucagon challenge test. Male beagle dogs were overnight fasted prior to the study. Test compound (at 3 mg/kg and 10 mg/kg for Compound #196 and at 10 mg/kg for Compounds #180, #248 and #253) or vehicle (0.5% hydroxypropyl methylcellulose) was dosed via oral gavage. Ninety minutes later, the dogs (1.5 years old, ˜9 Kg) were submitted to a glucagon challenge test by a single intramuscular injection of glucagon (Glucagon, rDNA origin, Eli Lilly, Indianapolis, Ind.) at dose of […]. Blood glucose levels were determined at times −10 min, 0 min (on challenge), 10 min, 20 min, 30 min, and 60 min after glucagon injection.
row,Compound,blood glucose levels during glucagon challenge time compared with vehicle treated group
1,"Cc1c(-c2ccc(C(F)(F)F)cc2Cl)ccc2nn([C@@H](CC(C)C)c3ccc(C(=O)NCCC(=O)O)cc3)cc12 [Compound 180, 3-[[4-[(1S)-1-[5-[2-Chloro-4-(trifluoromethyl)phenyl]-4-methyl-indazol-2-yl]-3-methyl-butyl]benzoyl]amino]propanoic Acid]",markedly reduced blood glucose levels

# — patent US11098016B2, “Indazole derivatives useful as glucagon receptor antagonists” (JANSSEN PHARMACEUTICA NV, priority 2016, dated 2021)
